This passage reports EC50 and Kd results from US10947252B2, “Inhibitors of KEAP1-Nrf2 protein-protein interaction” (Janssen Pharmaceutica NV, priority 2018, dated 2021).

Broadly, the EC50 is the concentration that produces a half-maximal response. Usually Kd stands for the constant that tells how readily two partners part at equilibrium.

Test [1] deals with Glo-Response ARE-luc2P HEK293 cell line. The test can be described thus: ARE luciferase reporter cell-based assay.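 Note: luciferase signal tracks Nrf2 activation of the ARE once compounds disrupt KEAP1-Nrf2 binding, read with One-Glo reagent, DMSO serving as low control.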 To be noted: average of results obtained. In general terms: In a reporter assay the amount or activity of a reporter protein is the signal.
For test [2], the target named is Kelch domain of human KEAP1 (321-624 aa) (Homo sapiens (Human), UniProt Q14145). In words: KEAP1 KELCH ThermoFluor binding assay.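 Note: Ligand-induced melting temperature shift of E. coli-expressed KEAP1 Kelch protein, Kd estimated from concentration-response curves of ΔTm.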 The conditions noted are these: KEAP Kelch […], 1,8-ANS, pH 7.0, average of results obtained, read-out: Tf Kd.
Chain of Kelch domain of human KEAP1 (321-624 aa) (Q14145 321-624): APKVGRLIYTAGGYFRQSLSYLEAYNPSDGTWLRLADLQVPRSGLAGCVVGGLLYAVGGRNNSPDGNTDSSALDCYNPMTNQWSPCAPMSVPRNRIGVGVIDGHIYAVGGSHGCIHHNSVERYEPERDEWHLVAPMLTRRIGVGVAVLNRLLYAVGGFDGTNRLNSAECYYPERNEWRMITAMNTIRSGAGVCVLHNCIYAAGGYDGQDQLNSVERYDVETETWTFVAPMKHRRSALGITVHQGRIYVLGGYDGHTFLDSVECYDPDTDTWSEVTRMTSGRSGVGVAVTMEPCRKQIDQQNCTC

For `Cc1ccc([C@H](CC(=O)O)c2cc(OC(F)F)c3c(c2)nnn3C)cc1CN1C[C@H]2CCCN2c2ncccc2S1(=O)=O` (relative stereo) [Example 247, (*S)-3-(7-(Difluoromethoxy)-1-methyl-1H-benzo[d][1,2,3]triazol-5-yl)-3-(3-(((R)-5,5-dioxido-7a,8,9,10-tetrahydropyrido[2,3-f]pyrrolo[2,1-d][1,2,5]thiadiazepin-6(7H)-yl)methyl)-4-methylphenyl)propanoic Acid], the EC50 in test [1] (24 hours) stood at 225 nM. In addition, in test [2], the Kd is less than 1 nM.
In turn, `CCn1nnc2c(C)c([C@H](CC(=O)O)c3ccc(C)c(CN4C[C@H]5CCCN5c5ncccc5S4(=O)=O)c3)ccc21` (single isomer, unassigned) [Example 22, (*R)-3-(3-(((R)-5,5-Dioxido-7a,8,9,10-tetrahydropyrido[2,3-f]pyrrolo[2,1-d][1,2,5]thiadiazepin-6(7H)-yl)methyl)-4-methylphenyl)-3-(1-ethyl-4-methyl-1H-benzo[d][1,2,3]triazol-5-yl)propanoic Acid] displayed an EC50 in test [1] (Homo sapiens, HEK293, 24 h) of 3.9 nM. Further, the Kd in test [2] is 0.081 nM.
The compound `Cc1ccc([C@@H](c2ccn3c(C(F)(F)F)nnc3c2C)C(C)(C)C(=O)O)cc1CN1CC2(CC2)Oc2nc(OCCN3CCOCC3)c(C)cc2S1(=O)=O` (single isomer, unassigned) [Example 597, (*S)-2,2-dimethyl-3-(4-methyl-3-((8′-methyl-7′-(2-morpholinoethoxy)-1′,1′-dioxidospiro[cyclopropane-1,4′-pyrido[2,3-b][1,4,5]oxathiazepin]-2′,(3′H)-yl)methyl)phenyl)-3-(8-methyl-3-(trifluoromethyl)-[1,2,4]triazolo[4,3-a]pyridine-7-yl)propanoic Acid] yielded an EC50 in test [1] (Homo sapiens, HEK293, 24 h) of 2.79 nM. In test [2], the dissociation constant (Kd) is less than 1 nM.
`Cc1ccc(C(c2ccn3c(C(F)(F)F)nnc3c2C)C(C)(C)C(=O)O)cc1CN1CC2(CCOCC2)Oc2nc(OCCCO)ccc2S1(=O)=O` (centres unmarked) [Example 49, 3-(3-((7′-(3-Hydroxypropoxy)-1′,1′-dioxido-2,3,5,6-tetrahydrospiro[pyran-4,4′-pyrido[2,3-b][1,4,5]oxathiazepin]-2′(3′H)-yl)methyl)-4-methylphenyl-2,2′-dimethyl-3-(8-methyl-3-trifluoromethyl)-[1,2,4]triazolo[4,3-a]pyridine-7-yl)propanoic Acid]: in test [1] (Homo sapiens, HEK293, 24 h), a half-maximal response (EC50) required 71.9 nM. For the same compound, in test [2], the equilibrium dissociation constant (Kd) was less than 1 nM.
In test [1] (Homo sapiens, HEK293, 24 h), `Cc1ccc(C(c2ccn3c(C(F)(F)F)nnc3c2C)C(C)(C)C(=O)O)cc1CN1CC2(CCOCC2)Oc2nc(N[C@@H](C)CCO)ccc2S1(=O)=O` (some centres unmarked) [Example 118] gave an EC50 of 324 nM. Moreover, in test [2], the dissociation constant (Kd) was less than 1 nM.
As to `Cc1c(C(CC(=O)O)c2ccc(Cl)c(CN3CC4CCCCN4c4ncccc4S3(=O)=O)c2)ccn2c(C(F)(F)F)nnc12` (centres unmarked) [Example 83, 3-(4-Chloro-3-(((*S)-5,5-dioxido-7,7a,8,9,10,11-hexahydro-6H-dipyrido[2,1-d:2′,3′-f][1,2,5]thiadiazepin-6-yl)methyl)phenyl)-3-(8-methyl-3-(trifluoromethyl)-[1,2,4]triazolo[4,3-a]pyridine-7-yl)propanoic Acid], in test [1] (Homo sapiens, HEK293, 24 h), the EC50 stood at 232 nM. In addition, the dissociation constant (Kd) in test [2] was less than 1 nM.
Take `Cc1cnc(C(c2ccn3c(C(F)(F)F)nnc3c2C)C(C)(C)C(=O)O)cc1CN1CC2(CCOCC2)Oc2ncccc2S1(=O)=O` (racemic) [Example 55, (R/S)-3-(4-((1′,1′-Dioxido-2,3,5,6-tetrahydrospiro[pyran-4,4′-pyrido[2,3-b][1,4,5]oxathiazepin]-2′(3′H)-yl)methyl)-5-methylpyridin-2-yl)-2,2-dimethyl-3-(8-methyl-3-(trifluoromethyl)-[1,2,4]triazolo[4,3-a]pyridin-7-yl)propanoic Acid]: the EC50 in test [1] (Homo sapiens, HEK293, 24 h) is 124 nM. Further, the Kd in test [2] was less than 1 nM.
On the same counts, the results for `Cc1c([C@@H](CC(=O)O)c2ccc(Cl)c(CN3CC4(COC4)Oc4ncccc4S3(=O)=O)c2)ccn2c(C(F)(F)F)nnc12` (single isomer, unassigned) [Example 88, (*S)-3-(4-Chloro-3-((1′,1′-dioxoidospiro[oxetane-3,4′-pyrido[2,3-b][1,4,5]oxathiazepin]-2′(3′H)-yl)methyl)phenyl)-3-(8-methyl-3-(trifluoromethyl)-[1,2,4]triazolo[4,3-a]pyridine-7-yl)propanoic Acid] are more than 20000 nM and 0.01 nM.
On the same counts, the results for `Cc1cnc2c(c1)S(=O)(=O)N(Cc1cc([C@H](c3cc4cc(C)nnc4n3C)C(C)(C)C(=O)O)ccc1C)CC1(CC1)O2` (single isomer, unassigned) [Example 331, (*R)-3-(3,7-Dimethyl-7H-pyrrolo[2,3-c]pyridazin-6-yl)-2,2-dimethyl-3-(4-methyl-3-((8′-methyl-1′,1′-dioxidospiro[cyclopropane-1,4′-pyrido[2,3-b][1,4,5]oxathiazepin]-2′(3′H)-yl)methyl)phenyl)propanoic Acid] are 17.1 nM and less than 1 nM.
On the same counts, the results for `Cc1ccc([C@@H](CC(=O)O)c2ccn3c(C(F)(F)F)nnc3c2C)cc1CN1C[C@H]2CCN2c2ncccc2S1(=O)=O` (single isomer, unassigned) [Example 295, (*R)-3-(3-(((*R)-5,5-Dioxido-7,7a,8,9-tetrahydro-6H-azeto[2,1-d]pyrido[2,3-f][1,2,5]thiadiazepin-6-yl)methyl)-4-methylphenyl)-3-(8-methyl-3-(trifluoromethyl)-[1,2,4]triazolo[4,3-a]pyridin-7-yl)propanoic Acid] are 2090 nM and 8.07 nM.
Regarding `CCc1nnc2c(C)c([C@H](CC(=O)O)c3ccc(C)c(CN4C[C@H]5CCCN5c5ncccc5S4(=O)=O)c3)ccn12` (single isomer, unassigned) [Example 283, (*R)-3-(3-(((R)-5,5-dioxido-7a,8,9,10-tetrahydropyrido[2,3-f]pyrrolo[2,1-d][1,2,5]thiadiazepin-6(7H)-yl)methyl)-4-methylphenyl)-3-(3-ethyl-8-methyl-[1,2,4]triazolo[4,3-a]pyridin-7-yl)propanoic Acid], the EC50 in test [1] (Homo sapiens, HEK293, 24 h) amounted to 4170 nM. In addition, the dissociation constant (Kd) in test [2] is less than 1 nM.
In turn, `Cc1ccc(C(CC(=O)O)c2ccn3c(C(F)(F)F)nnc3c2C)nc1CN1CC2(COC2)Oc2ccccc2S1(=O)=O` (centres unmarked) [Example 484, 3-(6-((1,1-Dioxidospiro[benzo[b][1,4,5]oxathiazepine-4,3′-oxetan]-2(3H)-yl)methyl)-5-methylpyridin-2-yl)-3-(8-methyl-3-(trifluoromethyl)-[1,2,4]triazolo[4,3-a]pyridin-7-yl)propanoic Acid] had a 50% effective concentration (EC50) in test [1] (Homo sapiens, HEK293, 24 h) of 226 nM. In addition, in test [2], the dissociation constant (Kd) was less than 1 nM.
For the compound `Cc1ncc([C@H](c2ccc3c(nnn3C3CC3)c2C)C(C)(C)C(=O)O)cc1CN1CC2(CCOCC2)Oc2ncccc2S1(=O)=O` (single isomer, unassigned) [Example 44, (*S)-3-(1-Cyclopropyl-4-methyl-1H-benzo[d][1,2,3]triazol-5-yl)-3-(5-((1′,1′-dioxido-2,3,5,6-tetrahydrospiro[pyran-4,4′-pyrido[2,3-b][1,4,5]oxathiazepin]-2′(3′H)-yl)methyl)-6-methylpyridin-3-yl)-2,2-dimethylpropanoic Acid], in test [1] (Homo sapiens, HEK293, 24 h), the EC50 worked out at 54.3 nM. Also, the Kd in test [2] was less than 1 nM.
